The term Kd denotes the constant that tells how readily two partners part at equilibrium.

Consider 2 compounds from US20120264949A1, “Method of Labeling Dopamine D2 Receptor Using Radiosynthesized Ligand of Iodine-123-Epidepride” (ATOMIC ENERGY COUNCIL-INSTITUTE OF NUCLEAR ENERGY RESEARCH, priority 2011, published 2012).

The target of data set [1] is T1, dopamine D2 receptors (Mus musculus, UniProt P61168).
T1 construct: from tissue; host or cells: mouse brain in vivo (striatum, thalamus, midbrain)
The experiment in a line: microSPECT/microCT imaging of mouse brain. The format is in vivo. The settings on record: 5 mCi injected, striatum, thalamus and midbrain. As to the method: FIG. 9 is a view showing a combined image of a mouse brain obtained through microSPECT and microCT. As shown in the figure, a combined image of a mouse brain is obtained through microSPECT and microCT, where 5 mCi of I-123-Epidepride is injected into the mouse brain.

Data set [2] in a line: Lipophilicity, octanol/PBS partition with gamma-counter. Format: physicochemical. As to the method:
For analyzing lipophilicity of the I-123-Epidepride, a solution of phosphate buffer saline (PBS) is used with lipophilic octanol. After 50 μl of I-123-Epidepride, 0.5 ml of PBS and 0.5 ml of octanol are mixed, a diluted octanol solution is obtained with an aqueous solution which has an equal weight as the octanol solution and then is processed with a gamma-counter. Therein, the lipophilicity of the I-123-Epidepride is expressed as a value of log P and log P is obtained by the following formula: Log P=Log {(Decay corrected activity)organic layer×10/(Decay corrected activity)aqueous layer}.
FIG. 6 and FIG. 7 are views showing lipophilicity and labeling results. […] Besides, the labeling method according to the present disclosure obtains 20 mCi each time for three times with an average radiochemistry purity of 99.55±0.8% and an average yield of 74.83±2.4% (shown in FIG. 7).

The nature of data set [3]: Stability after standing 24 hours, radiochemistry purity measured. The format is physicochemical. The following applies: stayed still for 24 hours. As to the method:
FIG. 8A and FIG. 8B are views showing stability at 0 hour and 24 hour. As shown in the figures, after the I-123-Epidepride is stayed still for 24 hours, its radiochemistry purity is measured. As shown by the liquid peaks, [32], the stability is higher than 90%.

For data set [4], the target named is dopamine D2 receptors (Homo sapiens, UniProt P14416). The settings on record: imaging agent for dopamine D2 receptors; cited from earlier work.
Sequence of dopamine D2 receptors (Homo sapiens, UniProt P14416) (P14416 whole entry): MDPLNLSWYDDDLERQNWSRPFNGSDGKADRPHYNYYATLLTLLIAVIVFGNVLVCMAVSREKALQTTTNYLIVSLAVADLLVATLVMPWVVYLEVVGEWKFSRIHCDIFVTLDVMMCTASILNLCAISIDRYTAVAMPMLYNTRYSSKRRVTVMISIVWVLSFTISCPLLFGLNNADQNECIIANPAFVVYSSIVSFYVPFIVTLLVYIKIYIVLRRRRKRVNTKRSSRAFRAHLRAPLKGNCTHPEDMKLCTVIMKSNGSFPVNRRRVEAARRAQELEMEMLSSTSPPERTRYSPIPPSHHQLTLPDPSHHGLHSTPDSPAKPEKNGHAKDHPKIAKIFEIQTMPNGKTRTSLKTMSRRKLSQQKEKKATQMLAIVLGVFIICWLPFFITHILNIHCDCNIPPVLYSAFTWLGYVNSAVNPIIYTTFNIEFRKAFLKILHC

T1 sequence (P61168 whole entry): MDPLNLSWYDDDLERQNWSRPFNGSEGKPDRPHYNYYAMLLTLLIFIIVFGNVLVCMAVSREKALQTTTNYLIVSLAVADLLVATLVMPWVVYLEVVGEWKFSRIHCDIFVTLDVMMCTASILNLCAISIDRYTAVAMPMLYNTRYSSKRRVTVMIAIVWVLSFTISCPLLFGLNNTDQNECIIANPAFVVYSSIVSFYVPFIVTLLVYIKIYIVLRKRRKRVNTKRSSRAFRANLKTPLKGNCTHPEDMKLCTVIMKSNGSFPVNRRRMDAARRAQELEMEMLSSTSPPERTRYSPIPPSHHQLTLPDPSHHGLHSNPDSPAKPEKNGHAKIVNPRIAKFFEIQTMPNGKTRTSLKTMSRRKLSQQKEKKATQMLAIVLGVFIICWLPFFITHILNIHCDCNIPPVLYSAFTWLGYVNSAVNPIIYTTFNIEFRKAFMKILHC

As to `CCN1CCC[C@H]1CNC(=O)c1cc(I)cc(OC)c1OC` [I-123-Epidepride], the “brain uptake in combined microSPECT/microCT image” value in data set [1] was “obvious absorption is found in striatum [41], thalamus and midbrain [42]”. The “log P value” in data set [2] is recorded as 1.76±0.04. In addition, the “stability (radiochemistry purity after 24 hours)” value in data set [3] is reported as “higher than 90%”.
For `CCN1CCC[C@H]1CNC(=O)c1c(OC)ccc(I)c1O` [IBZM], the Kd in data set [4] was 0.43 nM.
